Source: patent US7968554B2, “Pyrazolo[3,4-d]pyrimidine derivatives” (Hoffman-La Roche Inc., priority 2007, dated 2011)

Molecular target: T1, b-Raf wild-type (Homo sapiens, UniProt P15056)
T1 construct: recombinant human b-Raf residues 416-end with N-terminal GST-tag; purchased Upstate 14-530M; host or cells: baculovirus, Sf21 insect cells
Test: b-Raf wild-type HTRF assay with 6H-MEK as substrate (dose response)
Format: biochemical
Conditions: kinase enzyme inhibition, 6H-MEK substrate, read-out: bRaf wild-type IC50
Experimental: Kinase Enzyme Inhibition Assay (IC50)
b-Raf Wild-Type HTRF Assay With 6H-MEK as Substrate (Dose Response)
The assay utilizes 6H-MEK as the substrate. Upon b-Raf WT phosphorylation, phosphorylated 6H-MEK is detected with rabbit anti-phospho-MEK1/2, Eu-labeled anti-rabbit, and APC-labeled anti-6H antibodies.
Reagents and Instruments:
• Enzyme: recombinant human b-Raf residues 416-end with N-terminal GST-tag from Upstate; (expressed by baculovirus in Sf21 insect cells), 0.26 mg/mL (3.87 μM assuming a molecular weight of 67.2 kD) Cat. #14-530M, Lot #25502AU, stored at −80° C. • Substrate: WT full-length 6H-MEK, 4.94 mg/mL (154.4 μM assuming a MW of 32 kD) stored at −15° C. • Antibodies: Rabbit (α-P-(Ser 217/221)-MEK-1/2 Ab (from Cell Signaling, Cat. #9121B, Lot 14); Eu-(α-rabbit IgG (from Wallac, Cat. #AD0083, Lot 318663, 710 ug/mL, 4.4 μM); (α-6H-SureLight-APC (from Martek, Cat. #AD0059H, Lot E012AB01, 3.03 μM). • Reader: Envision from PerkinElmer, HTRF reading mode with 412 mirror • Assay Plate: Matrix all-black polypropylene plates (Cat. #4344) • Others: Weidman 384 polypropylene plates (REMP) for compound plate. Assay Procedure: • (1) Prepare Kinase Assay Buffer (KAB): 50 mM HEPES (HyClone) pH7, 10 mM MgCl2, 1 mM DTT, 0.1 mM […], and 0.3 mg/ml BSA. • (2) Prepare 6H-MEK (150 nM) in KAB. Add 12 μL/well to the assay plate. • (3) Prepare ATP (66 μM) in KAB. • (4) Dilute compounds to 2.4 mM and any positive controls to 480 μM in DMSO. Perform 10-point 3× dilution in DMSO. Withdraw 2.5 μL/well of DMSO solution and add to 27.5 μL/well ATP solution in (3). • (5) Mix, then add 6 μL/well of solution in (4) to the assay plate for a DMSO concentration of 2.1% during MEK phosphorylation. • (6) Prepare b-Raf WT (100 μM) in KAB. • (7) Add 6 μL/well of KAB in columns 1-2 and 6 μL/well of b-Raf WT in columns 3-24. • (8) Incubate at 37° C. for 30 min. • (9) Prepare rabbit (α-P-(Ser 217/221 )-MEK-1/2 Ab (1:200 from stock) in AB1: 50 mM HEPES pH7, 0.2 mg/ml BSA, and 43 mM EDTA. • (10) To stop reaction, add 6 μL/well of solution from (9) to the assay plate and incubate at 37° C. for 30 min. • (11) Prepare Eu-(α-rabbit IgG (9 nM) and (α-6H-SureLight-APC (180 nM) in AB2: 50 mM HEPES pH7 and 0.2 mg/mL BSA. • (12) Add 6 μL/well of solution from (11) to the assay plate. • (13) For determining the spectrum cross talk factor, prepare 2 samples following steps (1) to (10). For the blank sample, add 6 μL/well of AB2. For the cross talk factor sample, add 6 μL/well of Eu-anti rabbit IgG (9 nM). • (14) Incubate at room temperature for 1.5 hours. • (15) Read HTRF signals at 615 nm and 665 nm on the Envision. Normalize HTRF signals after spectrum cross-talk correction. b-Raf V600E Mutant HTRF Assay With 6H-MEK as Substrate (Dose Response) Assay Principle: […]

T1 sequence (P15056 416-766 limits assumed): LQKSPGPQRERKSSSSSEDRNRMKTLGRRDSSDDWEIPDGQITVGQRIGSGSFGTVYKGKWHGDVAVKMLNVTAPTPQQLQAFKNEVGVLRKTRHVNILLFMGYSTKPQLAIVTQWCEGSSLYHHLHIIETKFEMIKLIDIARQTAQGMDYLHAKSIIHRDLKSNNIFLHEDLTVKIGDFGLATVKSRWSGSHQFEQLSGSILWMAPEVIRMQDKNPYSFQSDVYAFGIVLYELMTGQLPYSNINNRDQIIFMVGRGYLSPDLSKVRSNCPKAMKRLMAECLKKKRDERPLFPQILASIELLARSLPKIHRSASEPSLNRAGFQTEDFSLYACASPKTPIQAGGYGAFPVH

`Cc1ccc(C(=O)Nc2ccc(Cl)cc2)cc1OCc1nn(C)c2ncnc(N)c12` [Example 17, 3-(4-Amino-1-methyl-1H-pyrazolo[3,4-d]pyrimidin-3-ylmethoxy)-N-(4-chloro-phenyl)-4-methyl-benzamide] and `Cc1ccc(NC(=O)c2cccc(Cl)c2)cc1OCc1nn(C)c2ncnc(N)c12` [Example 11, N-[3-(4-Amino-1-methyl-1H-pyrazolo[3,4-d]pyrimidin-3-ylmethoxy)-4-methyl-phenyl]-3-chloro-benzamide] cannot be ordered by IC50: under 10 µM for the first, under 10 µM for the second.

`Cc1ccc(OCc2ccccc2)cc1OCc1nn(C)c2ncnc(N)c12` [Example 15, 3-(5-Benzyloxy-2-methyl-phenoxymethyl)-1-methyl-1H-pyrazolo[3,4-d]pyrimidin-4-ylamine] and `Cc1ccc(OCc2ccc(Cl)cc2)cc1OCc1nn(C)c2ncnc(N)c12` [Example 19, 3-[5-(4-Chloro-benzyloxy)-2-methyl-phenoxymethyl]-1-methyl-1H-pyrazolo[3,4-d]pyrimidin-4-ylamine] cannot be ordered by IC50: under 10 µM for the first, under 10 µM for the second.

`Cc1nnc(-c2ccc(C)c(OCc3nn(C)c4ncnc(N)c34)c2)o1` [Example 21, 1-Methyl-3-[2-methyl-5-(5-methyl-[1,3,4]oxadiazol-2-yl)-phenoxymethyl]-1H-pyrazolo[3,4-d]pyrimidin-4-ylamine] and `Cc1noc(-c2ccc(C)c(OCc3nn(C)c4ncnc(N)c34)c2)n1` [Example 13, 4-Amino-1-1-methyl-3-[2-methyl-5-(3-methyl-[1,2,4]oxadiazol-5-yl)-phenoxymethyl]-1H-pyrazolo[3,4-d]pyrimidine] cannot be ordered by IC50: over 10 µM for the first, over 10 µM for the second.

Going from `Cc1ccc(NC(=O)c2ccc(NCCO)c(Cl)c2)cc1OCc1nn(C)c2ncnc(N)c12` [Example 9, N-[3-(4-Amino-1-methyl-1H-pyrazolo[3,4-d]pyrimidin-3-ylmethoxy)-4-methyl-phenyl]-3-chloro-4-(2-hydroxy-ethylamino)-benzamide] to `Cn1nc(COc2cccc(OCc3ccccc3)c2)c2c(N)ncnc21` [Example 7, 3-(3-Benzyloxy-phenoxymethyl)-1-methyl-1H-pyrazolo[3,4-d]pyrimidin-4-ylamine], the IC50 rises from under 10 µM to over 10 µM.
